Like-named read-outs stand apart in the source and are kept apart here.
Tests used:
[1] = system: total β-catenin in SW480 colorectal cells; assay: cells; assay type: cell-based; conditions: Homo sapiens; SW480 cells, 40 to 48 hours, top concentration 10 μM; read-out: SW480-Total β-Catenin IC50 IP
Procedure: Total β-Catenin MSD 96-Well Plate Assay for SW480 Cells
SW480 colorectal cells were seeded at a density of 10,000/well in CellBIND 96-well plates (Corning catalog no. 3300) in 60 μL of normal growth medium (MEM alpha supplemented with 10% heat inactivated FBS, GlutaMAX, pyruvate, and 10 mM HEPES).
A 10-point, 3-fold dilution series for each TNKS inhibitor was constructed in a 96-well “stock” plate. […] The plates were incubated at 37° C. for 40 to 48 hours. The media was removed from the CellBIND plate via plate inversion and gentle shaking and the inverted plate was touched to a paper towel and immediately placed on ice. […] Plates containing cell lysates were sealed and shaken for one hour at 4° C. and then quickly frozen in a −80° C. for approximately 15 to 30 minutes followed by gradually thawing at 4° C. Finally, lysate containing plates were centrifuged @1000×g (2073 rpm) for 10 minutes at 4° C.
The sealed MSD plate was incubated overnight in a cold room with gentle shaking. The MSD plate was then blocked with 150 μL of Blocker “A” per well and incubated overnight at 4° C. with vigorous shaking. The blocked MSD plate was washed 4 times with 150 μL/well TBS-T wash buffer (150 mM NaCl, 50 mM Tris, pH 7.5, 0.02% Tween-20). Cell lysates (75 μL) were transferred to prepared MSD plates and incubated at 4° C. ON with gentle shaking. […] The detection antibody was incubated for 1 hour at room temperature with vigorous shaking after which plates were washed 3 times with 150 μL/well TBS-T wash buffer. Plates were processed for analysis by the addition of 150 μL/well MSD Read 4× Buffer T with surfactant (catalog no. R92TC-2; diluted 1:3 in deionized water) and were read on the SECTOR Imager 6000.

[2] = biological target: 6×HIS-tankyrase 1 (1091-1325) (Homo sapiens (Human), UniProt O95271); assay: biochemical; assay type: biochemical; conditions: 400 nM NAD, 60 minutes at room temperature, read-out: TNKS1 IP IC50
Sequence of 6×HIS-tankyrase 1 (1091-1325) (O95271 1091-1325): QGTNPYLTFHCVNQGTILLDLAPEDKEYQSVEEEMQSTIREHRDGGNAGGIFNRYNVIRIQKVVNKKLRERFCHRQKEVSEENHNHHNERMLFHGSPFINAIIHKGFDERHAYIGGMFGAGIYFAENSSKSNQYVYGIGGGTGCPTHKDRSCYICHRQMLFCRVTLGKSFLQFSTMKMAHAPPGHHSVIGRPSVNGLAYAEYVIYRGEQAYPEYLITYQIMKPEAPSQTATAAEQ

Row | IC50 ([2]; […] enzyme) | SMILES | IC50 [1] | IC50 ([2]; 0.25 nM enzyme)
1 |  | CC1(C)OC(=O)N(c2ccc(C(=O)Nc3cccc4cccnc34)cc2)C1c1cccnc1 (racemic) [Example 9, (+/−)-(R/S)-4-(5,5-dimethyl-2-oxo-4-(pyridin-3-yl)oxazolidin-3-yl)-N-(quinolin-8-yl)benzamide] | 2480 nM | 1160 nM
2 |  | CC1(C)OC(=O)N(c2ccc(C(=O)Nc3cccc4cccnc34)cc2)C1c1cccc(F)c1 (racemic) [Example 108, (+/−)-(R/S)-4-(4-(3-fluorophenyl)-5,5-dimethyl-2-oxooxazolidin-3-yl)-N-(quinolin-8-yl)benzamide] | > 10000 nM | 551 nM
3 |  | CC1(C)OC(=O)N(c2ccc(C(=O)Nc3cccc4cccnc34)cc2)C1c1ccccn1 (racemic) [Example 121, (+/−)-(R/S)-4-(5,5-dimethyl-2-oxo-4-(pyridin-2-yl)oxazolidin-3-yl)-N-(quinolin-8-yl)benzamide] | 5640 nM | 310 nM
4 |  | CC1(C)OC(=O)N(c2ccc(C(=O)Nc3cccc4cccnc34)cc2)C1c1ccncc1 (racemic) [Example 124, (+/−)-(R/S)-4-(5,5-dimethyl-2-oxo-4-(pyridin-4-yl)oxazolidin-3-yl)-N-(quinolin-8-yl)benzamide] | 1500 nM | 767 nM
5 |  | CC1(C)OC(=O)N([C@H]2CC[C@H](n3c(=O)[nH]c4cccnc43)CC2)[C@@H]1c1ccccc1 [Example 38, (R)-5,5-dimethyl-3-((1r,4R)-4-(2-oxo-1H-imidazo[4,5-b]pyridin-3(2H)-yl)cyclohexyl)-4-phenyloxazolidin-2-one] | 4740 nM | 
6 |  | CC1(C)OC(=O)N([C@H]2CC[C@H](n3c(=O)n(CC(F)F)c4cnccc43)CC2)[C@H]1c1ccccc1 [Example 39, (S)-3-((1r,4S)-4-(3-(2,2-difluoroethyl)-2-oxo-2,3-dihydro-1H-imidazo[4,5-c]pyridin-1-yl)cyclohexyl)-5,5-dimethyl-4-phenyloxazolidin-2-one] | 6750 nM | 
7 |  | CC1(C)OC(=O)N([C@H]2CC[C@H](n3c(=O)[nH]c4cc(C#N)c(F)cc43)CC2)[C@H]1c1ccccc1 [Example 103, 1-((1S,4r)-4-((S)-5,5-dimethyl-2-oxo-4-phenyloxazolidin-3-yl)cyclohexyl)-6-fluoro-2-oxo-2,3-dihydro-1H-benzo[d]imidazole-5-carbonitrile] | 67.2 nM | 
8 | 260 nM | CC1(C)OC(=O)N([C@H]2CC[C@H](NC(=O)c3ccncn3)CC2)[C@H]1c1ccccc1 [Example 165, N-((1S,4r)-4-((S)-5,5-dimethyl-2-oxo-4-phenyloxazolidin-3-yl)cyclohexyl)pyrimidine-4-carboxamide] |  | 
9 | > 46300 nM | Cc1nc(C(=O)N[C@H]2CC[C@H](N3C(=O)OC(C)(C)[C@@H]3c3ccccc3)CC2)cs1 [Example 166, N-((1S,4r)-4-((S)-5,5-dimethyl-2-oxo-4-phenyloxazolidin-3-yl)cyclohexyl)-2-methylthiazole-4-carboxamide] |  | 
10 | > 46300 nM | CC1(C)OC(=O)N([C@H]2CC[C@H](NC(=O)c3csc(-c4ccncc4)n3)CC2)[C@H]1c1ccccc1 [Example 167, N-((1S,4r)-4-((S)-5,5-dimethyl-2-oxo-4-phenyloxazolidin-3-yl)cyclohexyl)-2-(pyridin-4-yl)thiazole-4-carboxamide] |  | 
11 | > 46300 nM | CC1(C)OC(=O)N([C@H]2CC[C@H](NC(=O)c3cscn3)CC2)[C@H]1c1ccccc1 [Example 168, N-((1S,4r)-4-((S)-5,5-dimethyl-2-oxo-4-phenyloxazolidin-3-yl)cyclohexyl)thiazole-4-carboxamide] |  | 
12 | 19 nM | CC1(C)OC(=O)N([C@H]2CC[C@H](c3cnc4cc[nH]c4c3)CC2)[C@H]1c1ccccc1 [Example 171, (S)-3-((1r,4S)-4-(1H-pyrrolo[3,2-b]pyridin-6-yl)cyclohexyl)-5,5-dimethyl-4-phenyloxazolidin-2-one] |  | 
13 | 1250 nM | CC1(C)OC(=O)N([C@H]2CC[C@@H](c3cnc4cc[nH]c4c3)CC2)[C@H]1c1ccccc1 [Example 172, (S)-3-((1s,4R)-4-(1H-pyrrolo[3,2-b]pyridin-6-yl)cyclohexyl)-5,5-dimethyl-4-phenyloxazolidin-2-one] |  | 
14 | 0.375 nM | C[C@H]1OC(=O)N([C@H]2CC[C@H](n3c(=O)[nH]c4cc(C#N)ccc43)CC2)[C@H]1c1ccccc1 [Example 178, 1-((1R,4s)-4-((4S,5R)-5-methyl-2-oxo-4-phenyloxazolidin-3-yl)cyclohexyl)-2-oxo-2,3-dihydro-1H-benzo[d]imidazole-5-carbonitrile] |  | 
15 | 129 nM | C[C@@H]1OC(=O)N([C@H]2CC[C@H](n3c(=O)[nH]c4cc(C#N)ccc43)CC2)C1c1ccccc1 (stereo partly drawn) [Example 179, 1-((1R,4r)-4-((4R,5S)-5-methyl-2-oxo-4-phenyloxazolidin-3-yl)cyclohexyl)-2-oxo-2,3-dihydro-1H-benzo[d]imidazole-5-carbonitrile] |  | 
16 | 915 nM | CC1(C)OC(=O)N([C@H]2CC[C@H](n3ncc4cc(C#N)ccc43)CC2)[C@@H]1c1ccccc1 [Example 180, 1-((1R,4r)-4-((R)-5,5-dimethyl-2-oxo-4-phenyloxazolidin-3-yl)cyclohexyl)-1H-indazole-5-carbonitrile] |  | 
17 | 714 nM | CC1(C)OC(=O)N([C@H]2CC[C@H](n3ncc4cc(C#N)ccc43)CC2)[C@H]1c1ccccc1 [Example 181, 1-((1S,4r)-4-((S)-5,5-dimethyl-2-oxo-4-phenyloxazolidin-3-yl)cyclohexyl)-1H-indazole-5-carbonitrile] |  | 
18 | 32.1 nM | CC1(C)OC(=O)N([C@H]2CC[C@H](NC(=O)c3csc(Br)n3)CC2)[C@H]1c1ccccc1 [Example 182, 2-bromo-N-((1S,4r)-4-((S)-5,5-dimethyl-2-oxo-4-phenyloxazolidin-3-yl)cyclohexyl)thiazole-4-carboxamide] |  | 
19 | 3.94 nM | CC1(C)OC(=O)N([C@H]2CC[C@H](NC(=O)c3csc(-c4ncccn4)n3)CC2)[C@H]1c1ccccc1 [Example 183, N-((1S,4r)-4-((S)-5,5-dimethyl-2-oxo-4-phenyloxazolidin-3-yl)cyclohexyl)-2-(pyrimidin-2-yl)thiazole-4-carboxamide] |  | 

Row | SMILES | IC50 ([2]; […] enzyme) | IC50 [1] | IC50 ([2]; 0.25 nM enzyme)
20 | CC1(C)OC(=O)N([C@@H]2CC=C(c3cnc4cc[nH]c4c3)CC2)[C@H]1c1ccccc1 (mixture of isomers) [Example 169, mixture of (S)-3-((S)-4-(1H-pyrrolo[3,2-b]pyridin-6-yl)cyclohex-3-en-1-yl)-5,5-dimethyl-4-phenyloxazolidin-2-one and (S)-3-((R)-4-(1H-pyrrolo[3,2-b]pyridin-6-yl)cyclohex-3-en-1-yl)-5,5-dimethyl-4-phenyloxazolidin-2-one] | 88.6 nM | 3180 nM | 
21 | CC1(C)OC(=O)N([C@@H]2CC=C(c3cnc4ccn(-c5ncccn5)c4c3)CC2)[C@H]1c1ccccc1 (mixture of isomers) [Example 173, Mixture of (S)-5,5-dimethyl-4-phenyl-3-((S)-4-(1-(pyrimidin-2-yl)-1H-pyrrolo[3,2-b]pyridin-6-yl)cyclohex-3-en-1-yl)oxazolidin-2-one and (S)-5,5-dimethyl-4-phenyl-3-((R)-4-(1-(pyrimidin-2-yl)-1H-pyrrolo[3,2-b]pyridin-6-yl)cyclohex-3-en-1-yl)oxazolidin-2-one] | 9.26 nM | 1120 nM | 
22 | C[C@]1(c2ccccc2)CN([C@H]2CC[C@H](n3c(=O)[nH]c4cc(C#N)ccc43)CC2)C(=O)O1 (single isomer, unassigned) [Example 94] | 270 nM | 3010 nM | 
23 | C[C@@]1(c2ccccc2)CN([C@H]2CC[C@@H](n3c(=O)[nH]c4cc(C#N)ccc43)CC2)C(=O)O1 (stereo in doubt) [Example 93, 1-((1R,4r)-4-((R)-5-methyl-2-oxo-5-phenyloxazolidin-3-yl)cyclohexyl)-2-oxo-2,3-dihydro-1H-benzo[d]imidazole-5-carbonitrile] | 3 nM | 125 nM | 
24 | CC1(C)OC(=O)N(c2ccc(-n3c(=O)[nH]c4ccccc43)cc2)[C@H]1c1ccccc1 [Example 19, (S)-5,5-dimethyl-3-(4-(2-oxo-2,3-dihydro-1H-benzo[d]imidazol-1-yl)phenyl)-4-phenyloxazolidin-2-one] | 863 nM | 8630 nM | 
25 | CC1(C)OC(=O)N(c2ccc(C(=O)Nc3nccc4cccnc34)cc2)[C@H]1c1ccccc1 [Example 20, (S)-4-(5,5-dimethyl-2-oxo-4-phenyloxazolidin-3-yl)-N-(1,7-naphthyridin-8-yl)benzamide] | 1480 nM | 5330 nM | 
26 | CC1(C)OC(=O)N([C@H]2CC[C@H](c3nnc(-c4ccccc4)o3)CC2)[C@H]1c1ccccc1 [Example 85, (S)-5,5-dimethyl-4-phenyl-3-((1r,4S)-4-(5-phenyl-1,3,4-oxadiazol-2-yl)cyclohexyl)oxazolidin-2-one] | 45.2 nM | 2410 nM | 

— patent publication US9340549B2, “Oxazolidinone compounds and derivatives thereof” (priority 2012, dated 2016)
